Assay results: the NIST ThermoML archive (doi:10.1021/je5004719)

Experiment: xn = mol fraction of the nth substance listed
Details: 101 kPa, Liquid; for speed of sound: Sing-around technique in a fixed-path interferometer; for mass density: Vibrating tube method

Cc1ccccc1C [1,2-dimethylbenzene] + C1CCOCC1
Details	mass density, 298.15 K [kg/m3]	mass density, 303.15 K [kg/m3]	speed of sound, 298.15 K [m/s]	speed of sound, 303.15 K [m/s]
x2 = 0.0908	876.43	872.06	1345.3	1323.7
x2 = 0.1432	876.68	872.25	1343.1	1321
x2 = 0.1897	876.87	872.4	1340.4	1317.9
x2 = 0.2318	877.04	872.53	1337.4	1314.7
x2 = 0.2953	877.26	872.71	1332.1	1309.2
x2 = 0.331	877.39	872.81	1328.8	1305.9
x2 = 0.3872	877.57	872.95	1323.2	1300.4
x2 = 0.4287	877.7	873.05	1319	1296.2
x2 = 0.4792	877.86	873.17	1313.7	1291
x2 = 0.5187	877.99	873.26	1309.6	1286.9
x2 = 0.5725	878.16	873.38	1304.1	1281.4
x2 = 0.6182	878.31	873.48	1299.5	1276.8
x2 = 0.6682	878.47	873.58	1294.6	1272
x2 = 0.7187	878.62	873.67	1290	1267.3
x2 = 0.7729	878.78	873.77	1285.3	1262.5
x2 = 0.8367	878.94	873.86	1280.2	1257.3
x2 = 0.8952	879.05	873.93	1276.1	1253.1
x2 = 0.9274	879.1	873.96	1274	1251
